Test results from the NIST ThermoML archive (doi:10.1021/acs.jced.6b00350).
Where “and” joins values, the source holds several entries; their conditions need not be identical. Equal entries are not always repeated.

Settings: Liquid, Hot wire method

FC(F)CC(F)(F)F [1,1,1,3,3-pentafluoropropane]
Settings	thermal conductivity
222.11 K, 10047 kPa	0.1156 W/m/K
222.11 K, 15756 kPa	0.117 W/m/K
222.12 K, 15761 kPa	0.1169 W/m/K
222.12 K, 21261 kPa	0.1184 W/m/K
222.12 K, 21267 kPa	0.1186 W/m/K
222.13 K, 27470 kPa	0.1201 W/m/K
222.13 K, 27478 kPa	0.1202 W/m/K
222.13 K, 33686 kPa	0.1212 W/m/K
222.16 K, 33712 kPa	0.1215 W/m/K
222.37 K, 39767 kPa	0.1235 W/m/K
222.37 K, 47190 kPa	0.1251 W/m/K
222.38 K, 39761 kPa	0.1235 W/m/K
222.38 K, 47197 kPa	0.125 W/m/K
222.38 K, 54316 kPa	0.1267 W/m/K
222.38 K, 54318 kPa	0.1267 W/m/K
222.38 K, 61389 kPa	0.1284 W/m/K
222.38 K, 67942 kPa	0.1297 W/m/K
222.39 K, 61385 kPa	0.1283 W/m/K
222.39 K, 67938 kPa	0.1298 W/m/K
222.5 K, 255 kPa	0.1121 W/m/K
222.5 K, 4863 kPa	0.1134 W/m/K
222.5 K, 4873 kPa	0.1134 W/m/K
222.51 K, 9999 kPa	0.1152 W/m/K
222.51 K, 10021 kPa	0.1152 W/m/K
222.51 K, 15761 kPa	0.1166 W/m/K
222.51 K, 15763 kPa	0.1166 W/m/K
222.51 K, 21262 kPa	0.1182 W/m/K
222.51 K, 21266 kPa	0.1185 W/m/K
222.51 K, 27487 kPa	0.12 W/m/K
222.52 K, 245 kPa	0.112 W/m/K
222.52 K, 27479 kPa	0.1198 W/m/K
222.52 K, 33833 kPa	0.1215 W/m/K
222.53 K, 33800 kPa	0.1213 W/m/K
222.77 K, 67930 kPa	0.1298 W/m/K
222.78 K, 39758 kPa	0.1234 W/m/K
222.78 K, 39765 kPa	0.1236 W/m/K
222.78 K, 47189 kPa	0.1249 W/m/K
222.78 K, 47193 kPa	0.125 W/m/K
222.78 K, 54318 kPa	0.1265 W/m/K
222.78 K, 54319 kPa	0.1266 W/m/K
222.78 K, 61395 kPa	0.1281 W/m/K
222.78 K, 61401 kPa	0.1282 W/m/K
222.78 K, 67928 kPa	0.1296 W/m/K
222.94 K, 4870 kPa	0.113 W/m/K
222.94 K, 10017 kPa	0.1147 W/m/K
222.94 K, 10023 kPa	0.1147 W/m/K
222.94 K, 15762 kPa	0.1162 W/m/K
222.94 K, 15767 kPa	0.1163 W/m/K
222.94 K, 21269 kPa	0.1181 W/m/K
222.94 K, 21277 kPa	0.118 W/m/K
222.94 K, 27478 kPa	0.1199 W/m/K
222.94 K, 27487 kPa	0.1197 W/m/K
222.94 K, 33837 kPa	0.1213 W/m/K
222.94 K, 33847 kPa	0.1213 W/m/K
222.95 K, 242 kPa	0.1115 W/m/K
222.95 K, 262 kPa	0.1116 W/m/K
222.95 K, 4862 kPa	0.113 W/m/K
223.19 K, 67923 kPa	0.1295 W/m/K
223.2 K, 61398 kPa	0.128 W/m/K
223.2 K, 67921 kPa	0.1295 W/m/K
223.21 K, 54306 kPa	0.1263 W/m/K
223.21 K, 61402 kPa	0.128 W/m/K
223.22 K, 39767 kPa	0.1231 W/m/K
223.22 K, 47186 kPa	0.1248 W/m/K
223.22 K, 47187 kPa	0.1248 W/m/K
223.22 K, 54313 kPa	0.1265 W/m/K
223.23 K, 39773 kPa	0.1231 W/m/K
223.38 K, 33868 kPa	0.1211 W/m/K
223.39 K, 33861 kPa	0.1211 W/m/K
223.4 K, 21286 kPa	0.1177 W/m/K
223.4 K, 27486 kPa	0.1196 W/m/K
223.4 K, 27487 kPa	0.1195 W/m/K
223.41 K, 15762 kPa	0.1159 W/m/K
223.41 K, 15769 kPa	0.1159 W/m/K
223.41 K, 21280 kPa	0.1178 W/m/K
223.42 K, 4862 kPa	0.1127 W/m/K
223.42 K, 4869 kPa	0.1127 W/m/K
223.42 K, 10011 kPa	0.1143 W/m/K
223.42 K, 10015 kPa	0.1145 W/m/K
223.43 K, 243 kPa	0.1111 W/m/K
223.43 K, 251 kPa	0.1111 W/m/K
223.65 K, 67907 kPa	0.1291 W/m/K
223.65 K, 67916 kPa	0.1294 W/m/K
223.66 K, 61399 kPa	0.1279 W/m/K
223.67 K, 61396 kPa	0.1278 W/m/K
223.68 K, 54302 kPa	0.1262 W/m/K
223.68 K, 54305 kPa	0.1261 W/m/K
223.69 K, 47183 kPa	0.1247 W/m/K
223.69 K, 47193 kPa	0.1247 W/m/K
223.7 K, 39777 kPa	0.123 W/m/K
223.71 K, 39772 kPa	0.1229 W/m/K
223.87 K, 33885 kPa	0.1209 W/m/K
223.88 K, 33873 kPa	0.1209 W/m/K
241.3 K, 9886 kPa	0.1092 W/m/K
241.3 K, 15301 kPa	0.1111 W/m/K
241.31 K, 9877 kPa	0.1094 W/m/K
241.32 K, 21013 kPa	0.1123 W/m/K
241.32 K, 21021 kPa	0.1121 W/m/K
241.33 K, 33388 kPa	0.115 W/m/K
241.34 K, 33390 kPa	0.1153 W/m/K
241.35 K, 26974 kPa	0.1134 W/m/K
241.35 K, 26975 kPa	0.1134 W/m/K
241.35 K, 46711 kPa	0.1187 W/m/K
241.35 K, 46714 kPa	0.1192 W/m/K
241.36 K, 39784 kPa	0.1173 W/m/K
241.37 K, 297 kPa	0.1065 W/m/K and 0.1069 W/m/K
241.37 K, 4974 kPa	0.1077 W/m/K
241.37 K, 39780 kPa	0.1174 W/m/K
241.38 K, 4982 kPa	0.1074 W/m/K
241.38 K, 53704 kPa	0.1209 W/m/K
241.38 K, 53707 kPa	0.1206 W/m/K
241.41 K, 61279 kPa	0.1222 W/m/K
241.43 K, 68711 kPa	0.1241 W/m/K
241.43 K, 68724 kPa	0.1238 W/m/K
241.68 K, 15290 kPa	0.1103 W/m/K
241.69 K, 9889 kPa	0.1088 W/m/K
241.69 K, 9892 kPa	0.1093 W/m/K
241.69 K, 15293 kPa	0.1107 W/m/K
241.69 K, 21027 kPa	0.1119 W/m/K
241.69 K, 21032 kPa	0.1126 W/m/K
241.7 K, 33378 kPa	0.1158 W/m/K
241.7 K, 33381 kPa	0.1154 W/m/K
241.7 K, 46707 kPa	0.1184 W/m/K
241.71 K, 26968 kPa	0.1137 W/m/K
241.71 K, 26981 kPa	0.1139 W/m/K
241.71 K, 46714 kPa	0.1189 W/m/K
241.72 K, 39777 kPa	0.117 W/m/K
241.73 K, 39791 kPa	0.1169 W/m/K
241.73 K, 53687 kPa	0.1208 W/m/K
241.73 K, 53704 kPa	0.1206 W/m/K
241.75 K, 61249 kPa	0.1223 W/m/K
241.75 K, 61272 kPa	0.1223 W/m/K
241.76 K, 296 kPa	0.1058 W/m/K
241.76 K, 303 kPa	0.1061 W/m/K
241.76 K, 4987 kPa	0.108 W/m/K
241.77 K, 4997 kPa	0.1079 W/m/K
241.77 K, 68669 kPa	0.1236 W/m/K
241.78 K, 68692 kPa	0.1241 W/m/K
